According to US10899700B2, “Process for the separation of long chain amino acids and dibasic acids” (Vitaworks IP, LLC, priority 2017, dated 2021):

How the values were obtained:
[1] = Solubility of alkali salts in sodium hydroxide solution (FIG. 6, FIG. 7); type: physicochemical; settings: 2 M sodium hydroxide, about 50° C.
Method: FIG. 6. Solubility curve of 11-aminoundecanoic acid in water at neutral pH, 1 M solution of sulfuric acid, and 2 M solution of sodium hydroxide.
FIG. 7. Solubility curve of heptanoic acid in a 6 M solution of sodium hydroxide and dodecanedioic acid in a 3 M solution of sodium hydroxide.
When the hydrolysis reaction of mixed amide derivatives from the Beckmann rearrangement is performed in the presence of alkali hydroxide, main products other than alkylamine are obtained in the form of their alkali salts. It was observed that a starting suspension of the mixed amide derivatives in a solution of alkali hydroxide is changed to a clear solution at a temperature of 60° C. or above after the hydrolysis.
Since long chain amino acid, e.g., 11-aminoundecanoic acid, has relatively constant solubility, evaporative concentration of the mother liquor will result in the crystallization of inorganic salt, in particular, sodium sulfate, along with valuable long chain amino acid. […] This finding greatly facilitates the separation of inorganic salt, most preferably, sodium sulfate, and the recovery of long chain amino acids.
In an alkali hydroxide hydrolysis of the mixed amide derivatives, two mole equivalents of alkali hydroxide are required, but more than two equivalents, usually between 2.5 to 3 equivalents of alkali hydroxide are used to achieve a complete hydrolysis. […]

[2] = Solubility of sodium salts in water, ethanol and aqueous ethanol (FIG. 8); type: physicochemical; settings: for solubility change of the sodium salt in aqueous ethanol (in words): aqueous ethanol versus water or ethanol; for solubility of the sodium salt in water and in ethanol (in words): both water and ethanol
Description: FIG. 8. Solubility of 11-aminoundecanoic acid and dodecanedioic acid in aqueous ethanol solution of 2 M sodium hydroxide at different concentration of ethanol.
For example, FIG. 8 illustrates the solubility change of sodium salts of 11-aminoundecanoic acid and dodecanedioic acid in aqueous ethanol. […] This surprising finding renders the separation of these two salts possible.

physchem = settings: aqueous buffer
[3] = Phase separation of hexylamine-water azeotrope distillate upon cooling; type: physicochemical; settings: aqueous phase after cooling and phase separation
Description: For the production of 11-aminoundecanoic acid and dodecanedioic acid, hexylamine is one of the main products. Hexylamine is found to form an azeotrope with water and can be separated from the solution by azeotropic distillation. Upon cooling, the distillate separates into an upper phase of nearly pure hexylamine and an aqueous phase containing not more than 2% of hexylamine. Hexylamine can also be separated from the mixture by steam distillation or steam stripping. Complete separation is accomplished when the distillate at the overhead becomes nearly neutral at a pH of 7-8.

SMILES	solubility of the alkali salt in 2 M solution of sodium hydroxide (in words) [1]	solubility change of the sodium salt in aqueous ethanol (in words) [2]	solubility of the sodium salt in water and in ethanol (in words) [2]	solubility (physchem) [mg/mL]	hexylamine content of the aqueous phase of the cooled azeotropic distillate [3]
NCCCCCCCCCCC(=O)O [11-aminoundecanoic acid]	freely soluble	drastically increases the solubility	nearly insoluble		
O=C(O)CCCCCCCCCCC(=O)O [dodecanedioic acid]		remains unchanged	nearly insoluble		
O=C(O)CCCCCCCC(=O)O [azelaic acid]				> 600	
CCCCCCN [hexylamine]					not more than 2%
